Counter-ions that a name gives are not always drawn.
Assays:
[1] = biological target: PI3Kγ (p110γ) Recombinant Human Protein (Homo sapiens (Human), UniProt P48736); assay: PI3K-γ Scintillation Proximity Assay; assay type: biochemical; conditions: read-out: PI3Kγ IC50
In short: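 Recombinant human p110γ assayed at room temperature in 20 mM MOPS pH 6.7, 10 mM MgCl2, 5 mM DTT, 0.03% CHAPS, 2% DMSO, with 20 μM PIP2 and 2 μM ATP plus [γ-33P]ATP. Product captured on WGA SPA beads overnight and counted; IC50 fitted from % of solvent-control activity versus log inhibitor concentration.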

[2] = biological target: PI3Kδ (p110δ/p85α) Recombinant Human Protein (Homo sapiens (Human), UniProt O00329); assay: PI3Kδ Scintillation Proximity Assay; assay type: biochemical
Source text: Example C. PI3Kδ Scintillation Proximity Assay
[γ-^33P]ATP (10 mCi/mL) and Wheat Germ Agglutinin (WGA) YSi SPA Scintillation Beads was purchased from Perkin-Elmer (Waltham, Mass.). Lipid kinase substrate, D-myo-Phosphatidylinositol 4,5-bisphosphate (PtdIns(4,5)P2)D (+)-sn-1,2-di-O-octanoylglyceryl, 3-O-phospho linked (PIP2), CAS 204858-53-7, was purchased from Echelon Biosciences (Salt Lake City, Utah). PI3Kδ (p110δ/p85α) Recombinant Human Protein was purchased from Eurofins (St Charles, Mo.). ATP, MgCl2, DTT, EDTA, MOPS and CHAPS were purchased from Sigma-Aldrich (St. Louis, Mo.).
The kinase reaction was conducted in polystyrene 384-well Greiner Bio-one white plate from Thermo Fisher Scientific in a final volume of 25 μL. Inhibitors were first diluted serially in DMSO and added to the plate wells before the addition of other reaction components. The final concentration of DMSO in the assay was 2%. The PI3Kδ assay was carried out at room temperature in 20 mM MOPS, pH 6.7, 10 mM MgCl2, 5 mM DTT and CHAPS 0.03%. Reactions were initiated by the addition of ATP, the final reaction mixture consisted of 20 μM PIP2, 2 μM ATP, 0.5 μCi [γ-^33P] ATP, 3.4 nM PI3Kδ. Reactions were incubated for 120 min and terminated by the addition of 40 μL SPA beads suspended in quench buffer: 163 mM potassium phosphate pH 7.8, 20% glycerol, 25 mM EDTA. The final concentration of SPA beads is 1.0 mg/mL. After the plate sealing, plates were shaken overnight at room temperature and centrifuged at 1500 rpm for 10 min, the radioactivity of the product was determined by scintillation counting on Topcount (Perkin-Elmer). IC50 determination was performed by fitting the curve of percent of the solvent control activity versus the log of the inhibitor concentration using the GraphPad Prism 6.0 software.

Chain of PI3Kγ (p110γ) Recombinant Human Protein (P48736 whole entry): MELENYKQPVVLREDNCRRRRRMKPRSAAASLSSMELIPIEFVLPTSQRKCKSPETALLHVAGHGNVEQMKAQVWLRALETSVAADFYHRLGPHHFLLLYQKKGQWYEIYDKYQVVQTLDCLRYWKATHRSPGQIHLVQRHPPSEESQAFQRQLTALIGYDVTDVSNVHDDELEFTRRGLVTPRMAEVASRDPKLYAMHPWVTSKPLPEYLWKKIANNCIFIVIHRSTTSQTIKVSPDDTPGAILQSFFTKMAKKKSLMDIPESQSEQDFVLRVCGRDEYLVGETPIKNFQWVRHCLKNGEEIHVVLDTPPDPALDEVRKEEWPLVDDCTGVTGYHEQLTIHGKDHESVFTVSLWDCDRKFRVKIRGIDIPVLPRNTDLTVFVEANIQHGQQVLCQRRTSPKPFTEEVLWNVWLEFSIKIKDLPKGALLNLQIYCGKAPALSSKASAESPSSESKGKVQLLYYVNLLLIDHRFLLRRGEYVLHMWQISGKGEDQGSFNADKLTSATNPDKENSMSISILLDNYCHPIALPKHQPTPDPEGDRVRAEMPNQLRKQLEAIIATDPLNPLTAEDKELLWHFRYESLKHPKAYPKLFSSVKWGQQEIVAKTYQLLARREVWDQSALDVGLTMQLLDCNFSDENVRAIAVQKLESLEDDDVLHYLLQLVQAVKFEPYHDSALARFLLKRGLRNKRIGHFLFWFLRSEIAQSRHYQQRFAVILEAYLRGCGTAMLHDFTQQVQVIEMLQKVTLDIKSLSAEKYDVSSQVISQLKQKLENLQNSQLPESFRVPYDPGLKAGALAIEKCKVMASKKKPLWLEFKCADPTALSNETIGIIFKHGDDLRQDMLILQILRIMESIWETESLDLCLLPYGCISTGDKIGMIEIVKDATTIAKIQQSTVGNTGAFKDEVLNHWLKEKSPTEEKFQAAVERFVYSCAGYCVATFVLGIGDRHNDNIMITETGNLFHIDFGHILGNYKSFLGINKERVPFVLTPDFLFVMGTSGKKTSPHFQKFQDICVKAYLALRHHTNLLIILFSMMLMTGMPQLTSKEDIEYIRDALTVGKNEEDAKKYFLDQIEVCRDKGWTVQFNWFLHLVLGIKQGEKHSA
Chain of PI3Kδ (p110δ/p85α) Recombinant Human Protein (O00329 whole entry): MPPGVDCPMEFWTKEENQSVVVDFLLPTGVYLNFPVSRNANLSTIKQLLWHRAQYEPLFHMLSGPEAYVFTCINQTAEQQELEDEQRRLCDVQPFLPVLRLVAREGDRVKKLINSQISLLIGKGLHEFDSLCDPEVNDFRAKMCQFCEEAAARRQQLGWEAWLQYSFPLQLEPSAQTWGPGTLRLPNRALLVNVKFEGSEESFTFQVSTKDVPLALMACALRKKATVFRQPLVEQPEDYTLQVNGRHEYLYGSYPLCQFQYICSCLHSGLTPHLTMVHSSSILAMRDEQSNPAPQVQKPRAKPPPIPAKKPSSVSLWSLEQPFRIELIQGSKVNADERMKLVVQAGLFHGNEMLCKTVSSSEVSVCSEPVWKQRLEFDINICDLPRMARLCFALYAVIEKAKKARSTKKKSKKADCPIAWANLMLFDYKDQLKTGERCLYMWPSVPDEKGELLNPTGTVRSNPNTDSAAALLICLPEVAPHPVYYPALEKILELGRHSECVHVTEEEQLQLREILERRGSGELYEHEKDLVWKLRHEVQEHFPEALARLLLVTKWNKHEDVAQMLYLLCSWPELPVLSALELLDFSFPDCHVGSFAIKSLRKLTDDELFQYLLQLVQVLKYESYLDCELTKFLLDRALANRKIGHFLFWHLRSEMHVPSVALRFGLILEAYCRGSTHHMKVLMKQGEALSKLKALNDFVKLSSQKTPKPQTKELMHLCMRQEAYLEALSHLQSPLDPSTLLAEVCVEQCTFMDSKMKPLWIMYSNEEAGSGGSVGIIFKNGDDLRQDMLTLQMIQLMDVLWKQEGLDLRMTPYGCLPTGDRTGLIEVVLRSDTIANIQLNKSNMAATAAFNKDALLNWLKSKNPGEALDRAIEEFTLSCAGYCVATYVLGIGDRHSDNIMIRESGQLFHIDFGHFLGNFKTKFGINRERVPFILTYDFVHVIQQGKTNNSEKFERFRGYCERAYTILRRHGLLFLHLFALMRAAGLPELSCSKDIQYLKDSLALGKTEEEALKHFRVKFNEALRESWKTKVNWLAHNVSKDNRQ
Chain of PI3Kδ (p110δ/p85α) Recombinant Human Protein (P27986 whole entry partner): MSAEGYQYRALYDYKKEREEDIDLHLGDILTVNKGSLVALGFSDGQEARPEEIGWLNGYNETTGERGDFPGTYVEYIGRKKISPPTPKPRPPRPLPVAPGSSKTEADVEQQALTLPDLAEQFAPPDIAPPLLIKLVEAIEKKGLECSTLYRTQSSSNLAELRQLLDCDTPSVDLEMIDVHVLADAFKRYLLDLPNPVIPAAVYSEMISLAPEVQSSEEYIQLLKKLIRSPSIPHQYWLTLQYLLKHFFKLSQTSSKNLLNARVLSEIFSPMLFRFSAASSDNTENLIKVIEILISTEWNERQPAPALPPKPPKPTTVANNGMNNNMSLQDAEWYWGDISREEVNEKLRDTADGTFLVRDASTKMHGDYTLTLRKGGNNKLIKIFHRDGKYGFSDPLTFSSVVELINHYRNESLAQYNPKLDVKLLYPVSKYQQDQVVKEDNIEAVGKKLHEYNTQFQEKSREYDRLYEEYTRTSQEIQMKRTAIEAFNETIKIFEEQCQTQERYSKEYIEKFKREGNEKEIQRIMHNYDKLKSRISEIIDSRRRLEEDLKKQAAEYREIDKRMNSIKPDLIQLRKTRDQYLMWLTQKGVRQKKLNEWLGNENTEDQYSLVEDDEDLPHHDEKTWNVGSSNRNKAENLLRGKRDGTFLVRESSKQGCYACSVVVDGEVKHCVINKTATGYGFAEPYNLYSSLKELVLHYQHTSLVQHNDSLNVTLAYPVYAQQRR

Row | Structure (SMILES) | IC50 [1] [nM] | IC50 [2] [nM]
1 | Cc1ccc(S(=O)(=O)N[C@]2(C)C[C@H](O)C2)cc1-c1cnc2c(N)ncnn12 [Example 191, 3-(4-aminoimidazo[2,1-f][1,2,4]triazin-7-yl)-N-((1s,3s)-3-hydroxy-1-methylcyclobutyl)-4-methylbenzenesulfonamide] | < 100 | 500 to 2000
2 | Cc1ccc(S(=O)(=O)N2CCC3(CC2)COC(=O)N3)cc1-c1cnc2c(N)ncnn12 [Example 193, 8-((3-(4-Aminoimidazo[2,1-f][1,2,4]triazin-7-yl)-4-methylphenyl)sulfonyl)-3-oxa-1,8-diazaspiro[4.5]decan-2-one] | < 100 | 500 to 2000
3 | Cc1ccc(S(=O)(=O)N2CC3(CCN(C)C3=O)C2)cc1-c1cnc2c(N)ncnn12 [Example 195, 2-((3-(4-Aminoimidazo[2,1-f][1,2,4]triazin-7-yl)-4-methylphenyl)sulfonyl)-6-methyl-2,6-diazaspiro[3.4]octan-5-one] | < 100 | 100 to 500
4 | Cc1ccc(S(=O)(=O)N2CCC(F)(F)C(O)C2)cc1-c1cnc2c(N)ncnn12 (centres unmarked) [Example 196, 1-((3-(4-Aminoimidazo[2,1-f][1,2,4]triazin-7-yl)-4-methylphenyl)sulfonyl)-4,4-difluoropiperidin-3-ol] | < 100 | 500 to 2000
5 | Cc1ccc(S(=O)(=O)N2CCN3CCCC3C2)cc1-c1cnc2c(N)ncnn12 (centres unmarked) [Example 198, 7-(5-((Hexahydropyrrolo[1,2-a]pyrazin-2(1H)-yl)sulfonyl)-2-methylphenyl)imidazo[2,1-f][1,2,4]triazin-4-amine] | 100 to 500 | 500 to 2000
6 | Cc1ccc(S(=O)(=O)N2CCC(C)(C#N)C2)cc1-c1cnc2c(N)ncnn12 (centres unmarked) [Example 200, 1-((3-(4-Aminoimidazo[2,1-f][1,2,4]triazin-7-yl)-4-methylphenyl)sulfonyl)-3-methylpyrrolidine-3-carbonitrile] | < 100 | 500 to 2000
7 | Cc1ccc(S(=O)(=O)N2CCC(c3ccncc3)C2)cc1-c1cnc2c(N)ncnn12 (centres unmarked) [Example 201, 7-(2-Methyl-5-((3-(pyridin-4-yl)pyrrolidin-1-yl)sulfonyl)phenyl)imidazo[2,1-f][1,2,4]triazin-4-amine] | < 100 | 500 to 2000
8 | Cc1ccc(S(=O)(=O)N2CCC3(CCCO3)C2)cc1-c1cnc2c(N)ncnn12 (centres unmarked) [Example 202, 7-(5-((1-Oxa-7-azaspiro[4.4]nonan-7-yl)sulfonyl)-2-methylphenyl)imidazo[2,1-f][1,2,4]triazin-4-amine] | 100 to 500 | 500 to 2000
9 | Cc1ccc(S(=O)(=O)N2CCC(N(C)C)C2)cc1-c1cnc2c(N)ncnn12 (centres unmarked) [Example 204, 7-(5-((3-(Dimethylamino)pyrrolidin-1-yl)sulfonyl)-2-methylphenyl)imidazo[2,1-f][1,2,4]triazin-4-amine] | 100 to 500 | 500 to 2000
10 | Cc1ccc(S(=O)(=O)N2CCC3(CCC(F)(F)CC3)C2)cc1-c1cnc2c(N)ncnn12 [Example 207, 7-(5-((8,8-Difluoro-2-azaspiro[4.5]decan-2-yl)sulfonyl)-2-methylphenyl)imidazo[2,1-f][1,2,4]triazin-4-amine] | < 100 | 100 to 500
11 | Cc1ccc(S(=O)(=O)N2CCCC23CCOCC3)cc1-c1cnc2c(N)ncnn12 [Example 209, 7-(5-((8-Oxa-1-azaspiro[4.5]decan-1-yl)sulfonyl)-2-methylphenyl)imidazo[2,1-f][1,2,4]triazin-4-amine] | < 100 | 500 to 2000
12 | Cc1ccc(S(=O)(=O)N2CCC[C@H]2C(C)(C)O)cc1-c1cnc2c(N)ncnn12 [Example 213, (S)-2-(1-((3-(4-Aminoimidazo[2,1-f][1,2,4]triazin-7-yl)-4-methylphenyl)sulfonyl)pyrroldiin-2-yl)propan-2-ol] | < 100 | 500 to 2000
13 | N#Cc1ccc(S(=O)(=O)NC23CCC(C#N)(C2)C3)cc1-c1cnc2c(N)ncnn12 [Example 260, 3-(4-Aminoimidazo[2,1-f][1,2,4]triazin-7-yl)-4-cyano-N-(4-cyanobicyclo[2.1.1]hexan-1-yl)benzenesulfonamide trifluoroacetate salt] | < 100 | 500 to 2000
14 | Cc1ccc(S(=O)(=O)N2CC3(CC(O)C3)C2)cc1-c1cnc2c(N)nc(C(F)(F)F)cn12 [Example 297, 2-((3-(8-amino-6-(trifluoromethyl)imidazo[1,2-a]pyrazin-3-yl)-4-methylphenyl)sulfonyl)-2-azaspiro[3.3]heptan-6-ol] | < 100 | 500 to 2000
15 | Cc1ccc(S(=O)(=O)N2CCN(C)C(=O)C2)cc1-c1cnc2c(N)nc(C(F)(F)F)cn12 [Example 298, 4-((3-(8-amino-6-(trifluoromethyl)imidazo[1,2-a]pyrazin-3-yl)-4-methylphenyl)sulfonyl)-1-methylpiperazin-2-one] | < 100 | 500 to 2000
16 | Cc1ccc(S(=O)(=O)N2CCCC2c2c(C)noc2C)cc1-c1cnc2c(N)nc(C(F)(F)F)cn12 (centres unmarked) [Example 300, 3-(5-((2-(3,5-dimethylisoxazol-4-yl)pyrrolidin-1-yl)sulfonyl)-2-methylphenyl)-6-(trifluoromethyl)imidazo[1,2-a]pyrazin-8-amine] | < 100 | 500 to 2000
17 | Cc1ccc(S(=O)(=O)N2CC3CC3(C#N)C2)cc1-c1cnc2c(N)nc(C(F)(F)F)cn12 (centres unmarked) [Example 302, 3-((3-(8-amino-6-(trifluoromethyl)imidazo[1,2-a]pyrazin-3-yl)-4-methylphenyl)sulfonyl)-3-azabicyclo[3.1.0]hexane-1-carbonitrile] | < 100 | 500 to 2000
18 | Cc1ccc(S(=O)(=O)N2CC3NCC2C3O)cc1-c1cnc2c(N)nc(C(F)(F)F)cn12 (centres unmarked) [Example 303, 2-((3-(8-amino-6-(trifluoromethyl)imidazo[1,2-a]pyrazin-3-yl)-4-methylphenyl)sulfonyl)-2,5-diazabicyclo[2.2.1]heptan-7-ol 2HCl] | < 100 | 500 to 2000
19 | Cc1ccc(S(=O)(=O)N2CCOC3CNCC32)cc1-c1cnc2c(N)nc(C(F)(F)F)cn12 (centres unmarked) [Example 304, 3-(5-((hexahydropyrrolo[3,4-b][1,4]oxazin-4(4aH)-yl)sulfonyl)-2-methylphenyl)-6-(trifluoromethyl)imidazo[1,2-a]pyrazin-8-amine] | < 100 | 500 to 2000
20 | COC1CCCN(S(=O)(=O)c2ccc(C)c(-c3cnc4c(N)nc(C(F)(F)F)cn34)c2)C1 (centres unmarked) [Example 313, 3-(5-((3-Methoxypiperidin-1-yl)sulfonyl)-2-methylphenyl)-6-(trifluoromethyl)imidazo[1,2-a]pyrazin-8-amine] | < 100 | 100 to 500
21 | CCN1CC2C(O)C1CN2S(=O)(=O)c1ccc(C)c(-c2cnc3c(N)nc(C(F)(F)F)nn23)c1 (centres unmarked) [Example 349, 2-((3-(4-amino-2-(trifluoromethyl)imidazo[2,1-f][1,2,4]triazin-7-yl)-4-methylphenyl)sulfonyl)-5-ethyl-2,5-diazabicyclo[2.2.1]heptan-7-ol] | < 100 | 500 to 2000
22 | Cc1ccc(S(=O)(=O)N2CC3C(O)C2CN3C(C)C)cc1-c1cnc2c(N)nc(C(F)(F)F)nn12 (centres unmarked) [Example 350, 2-((3-(4-amino-2-(trifluoromethyl)imidazo[2,1-f][1,2,4]triazin-7-yl)-4-methylphenyl)sulfonyl)-5-isopropyl-2,5-diazabicyclo[2.2.1]heptan-7-ol] | 100 to 500 | 500 to 2000
23 | Cc1ccc(S(=O)(=O)N2CC3C(O)C2CN3C2CCC(C#N)C2)cc1-c1cnc2c(N)nc(C(F)(F)F)nn12 (centres unmarked) [Example 351, 3-(5-((3-(4-amino-2-(trifluoromethyl)imidazo[2,1-f][1,2,4]triazin-7-yl)-4-methylphenyl)sulfonyl)-7-hydroxy-2,5-diazabicyclo[2.2.1]heptan-2-yl)cyclopentane-1-carbonitrile] | < 100 | 500 to 2000
24 | Cc1ccc(S(=O)(=O)N2CC3C(O)C2CN3C)cc1-c1cnc2c(N)nc(C(F)(F)F)nn12 (centres unmarked) [Example 352, 2-((3-(4-amino-2-(trifluoromethyl)imidazo[2,1-f][1,2,4]triazin-7-yl)-4-methylphenyl)sulfonyl)-5-methyl-2,5-diazabicyclo[2.2.1]heptan-7-ol] | < 100 | 500 to 2000
25 | Cc1cc(C)c(S(=O)(=O)NCC(C)(C)O)cc1-c1cnc2c(N)nccn12 [Example 361, 5-(8-aminoimidazo[1,2-a]pyrazin-3-yl)-N-(2-hydroxy-2-methylpropyl)-2,4-dimethylbenzenesulfonamide] | 100 to 500 | 100 to 500

Reference: patent US10479795B2 (Incyte Corporation, priority 2016, dated 2019)
